The values that follow come from PMC4215196 (Journal of nuclear medicine : official publication, Society …, 2009).

A short description of series [1]: In vitro stability in mouse serum. The series is classed as in vitro ADME. Conditions: for percentage of intact probe: 37°C.
A further series has as its system A375M tumors. Conditions: µPET.
Series [2] is described as follows: µPET ROI analysis, normal lung.
A further series has as its system B16F10 cells. Kind of series: In vitro cell uptake in B16F10 cells.
Series [3] relates to B16F10 melanoma lung metastases. Briefly: µPET ROI analysis, B16F10 lung metastases model. The settings on record: lungs harboring metastasis.
Series [4] has as its system B16F10 pulmonary metastases. Briefly: Biodistribution in B16F10 lung metastases bearing mice. Conditions: 2 h p.i.
A further series relates to B16F10 melanoma. Briefly: Biodistribution in subcutaneous B16F10 tumor bearing mice.
For a further series, the system named is B16 melanoma. Conditions: C57BL6 mice bearing B16 melanoma, 24 h; cited from earlier work.
The mark [5] stands for this setting: subcutaneous B16F10 tumor bearing mice, 2 h p.i.

In the case of `CCN(CC)CCNC(=O)c1ccc([18F])cc1` [^18F-FBZA, ^18F-N-[2-(diethylamino)ethyl]-4-fluoro-Benzamide], the “percentage of intact probe” value in series [1] (30 min incubation) was determined as 94.1%; in series [1] (60 min incubation), 93.5%; in series [1] (120 min incubation), 87.8%; in series [1] (150 min incubation) it was 85.1%. Moreover, in series [1] (up to 150 min), the Defluorination result is recorded as “not observed”. For the same molecule, the “tumor uptake, PET ROI analysis” value with A375M tumors turned out to be 0.86 ± 0.03 %ID/g. Also, the “lung uptake, µPET ROI analysis” value was found to be 1.2 ± 0.2 %ID/g in series [2], 9.0 ± 0.4 %ID/g in series [3] (tumor dose 0.4 × 10^6 B16F10 cells) and 15.3 ± 1.1 %ID/g in series [3] (tumor dose 0.8 × 10^6 B16F10 cells). Also, the cellular accumulation in the series on B16F10 cells (B16F10 cells pretreated with L-tyrosine (2.0 mM) 24 h, 4°C, 30 minutes) stood at 4.5 ± 0.5%; in the series with B16F10 cells (non-treated B16F10 cells, 2-hour incubation, 4 °C), 0.49 ± 0.03%; in the series on B16F10 cells (non-treated B16F10 cells, 2-hour incubation, 37 °C), 0.52 ± 0.1%. Further, the cell uptake in the series with B16F10 cells (B16F10 cells pretreated with L-tyrosine (2.0 mM) 24 h, 37°C, 30 minutes) is listed as 10.7 ± 0.8%. In addition, in the series on B16F10 cells (tyrosine stimulated B16F10 cells, 30 minutes), the “uptake at 4°C less than cellular uptake at 37°C” value was determined as 58%. Besides, in the series on B16F10 cells (tyrosine stimulated cells, 37°C), the “fold increase of uptake compared to non-treated B16F10 cells” value is listed as 18–25 fold. The figures for the “Uptake Ratio Lung / Blood” value in series [4] (lung metastases from 0.2 × 10^6 B16F10 cells) and in series [4] (lung metastases from 0.4 × 10^6 B16F10 cells) were 24.7 ± 13.5 and 38.9 ± 10.3, respectively. Also, in the series on B16F10 melanoma (B16F10 model, 1 h), the “tumor to brain ratio” value is on record as 5.14 ± 1.10. Moreover, the lung-to-blood ratio in the series with B16F10 melanoma (B16F10 subcutaneous tumor bearing mice, 2 h) stood at 4.72 ± 0.46. Moreover, the “Uptake Ratio Tumor / Blood” value in the series on B16F10 melanoma (setting [5]) amounted to 34.0 ± 13.2. In the series with B16F10 melanoma (setting [5]), the “Uptake Ratio Tumor / Muscle” value is 23.3 ± 10.1.
Regarding `CCN(CC)CCNC(=O)c1ccc([125I])cc1` [^125I-BZA, N-(2-diethylaminoethy1)-4-^125I-iodo-benzamide], the tumor-to-blood ratio in the series with B16 melanoma is recorded as 37.3 ± 6.9.
